This is an account of results in patent publication US20020026053A1, “Novel 3-(substituted) -2- indolinones compounds and use thereof as inhibitors of protein kinase activity” (priority 1997, published 2002).

This experiment concerns FLK-1 receptor. Nature of the experiment: FLK-1 Assay (cellular/catalytic ELISA, VEGF-stimulated phosphotyrosine). The format is cell-based. The arrangement: concentration or dose not given beside the values. The method, boiled down:
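Receptor phosphotyrosine ELISA: Flk-1-expressing NIH3T3 C7#3 cells, starved overnight in 0.1% FBS medium, received compound (1:200 final dilution, 0.5% DMSO) for 2 h at 37 °C, then VEGF. Anti-FLK-1-captured receptor was probed with anti-phosphotyrosine UB40 and peroxidase/ABTS read-out, relative to cells without compound.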
Background: ELISA stands for enzyme-linked immunosorbent assay.

Regarding `CNS(=O)(=O)c1ccc2c(c1)C(=Cc1cccc(Cl)c1)C(=O)N2` [10736/D06], the “Flk Kinase % Inhibition (P.110)” value worked out at 12.2%.

With `CNS(=O)(=O)c1ccc2c(c1)C(=Cc1cccc(F)c1)C(=O)N2` [10736/D07], the “Flk Kinase % Inhibition (P.110)” value turned out to be 7.0%. To `CNS(=O)(=O)c1ccc2c(c1)C(=Cc1ccccc1F)C(=O)N2` [10736/D08] belongs 11.0%; to `CCc1ccc(C=C2C(=O)Nc3ccc(S(=O)(=O)NC)cc32)cc1` [10736/D09], 8.5%; to `CNS(=O)(=O)c1ccc2c(c1)C(=Cc1cccc(OC)c1)C(=O)N2` [10736/D10], −11.6%.

`CNS(=O)(=O)c1ccc2c(c1)C(=Cc1ccccc1Cl)C(=O)N2` [10736/D11]: the “Flk Kinase % Inhibition (P.110)” value is 12.5%. Next, `O=C1Nc2ccc(S(=O)(=O)Nc3ccc(C(F)(F)F)cc3)cc2C1=Cc1ccc(Cl)cc1` [10736/E02]: 8.2%; `O=C1Nc2ccc(S(=O)(=O)Nc3ccc(C(F)(F)F)cc3)cc2C1=Cc1ccccc1C(F)(F)F` [10736/E03]: 17.7%; `Cc1cccc(C=C2C(=O)Nc3ccc(S(=O)(=O)Nc4ccc(C(F)(F)F)cc4)cc32)c1` [10736/E04]: 22.6%. In the case of `Cc1ccc(C=C2C(=O)Nc3ccc(S(=O)(=O)Nc4ccc(C(F)(F)F)cc4)cc32)cc1` [10736/E05], the “Flk Kinase % Inhibition (P.110)” value worked out at 30.2%. As for `O=C1Nc2ccc(S(=O)(=O)Nc3ccc(C(F)(F)F)cc3)cc2C1=Cc1cccc(Cl)c1` [10736/E06], the “Flk Kinase % Inhibition (P.110)” value is on record as 20.1%. To `O=C1Nc2ccc(S(=O)(=O)Nc3ccc(C(F)(F)F)cc3)cc2C1=Cc1cccc(F)c1` [10736/E07] belongs 15.3%. To `O=C1Nc2ccc(S(=O)(=O)Nc3ccc(C(F)(F)F)cc3)cc2C1=Cc1ccccc1F` [10736/E08] belongs 19.3%; to `CCc1ccc(C=C2C(=O)Nc3ccc(S(=O)(=O)Nc4ccc(C(F)(F)F)cc4)cc32)cc1` [10736/E09], 14.1%; to `COc1cccc(C=C2C(=O)Nc3ccc(S(=O)(=O)Nc4ccc(C(F)(F)F)cc4)cc32)c1` [10736/E10], 27.2%.

As for `O=C1Nc2ccc(S(=O)(=O)Nc3ccc(C(F)(F)F)cc3)cc2C1=Cc1ccccc1Cl` [10736/E11], the “Flk Kinase % Inhibition (P.110)” value was found to be 20.5%. On to `O=C1Nc2ccc(S(=O)(=O)N3CCOCC3)cc2C1=Cc1ccc(Cl)cc1` [10736/F02], for which the “Flk Kinase % Inhibition (P.110)” value turned out to be 23.9%. Consider `O=C1Nc2ccc(S(=O)(=O)N3CCOCC3)cc2C1=Cc1ccccc1C(F)(F)F` [10736/F03], for which the “Flk Kinase % Inhibition (P.110)” value is listed as 16.6%. To `Cc1cccc(C=C2C(=O)Nc3ccc(S(=O)(=O)N4CCOCC4)cc32)c1` [10736/F04] belongs 16.5%. To `Cc1ccc(C=C2C(=O)Nc3ccc(S(=O)(=O)N4CCOCC4)cc32)cc1` [10736/F05] belongs 15.1%.

In the case of `O=C1Nc2ccc(S(=O)(=O)N3CCOCC3)cc2C1=Cc1cccc(Cl)c1` [10736/F06], the “Flk Kinase % Inhibition (P.110)” value came out at 14.5%.

With `O=C1Nc2ccc(S(=O)(=O)N3CCOCC3)cc2C1=Cc1cccc(F)c1` [10736/F07], the “Flk Kinase % Inhibition (P.110)” value is on record as 16.6%.

Regarding `O=C1Nc2ccc(S(=O)(=O)N3CCOCC3)cc2C1=Cc1ccccc1F` [10736/F08], the “Flk Kinase % Inhibition (P.110)” value is listed as 7.4%. Next, `CCc1ccc(C=C2C(=O)Nc3ccc(S(=O)(=O)N4CCOCC4)cc32)cc1` [10736/F09]: 24.0%.
